Values of other authors in publication PMC4189701 (Drug Design, Development and Therapy, 2014).
Like-named read-outs stand apart in the source and are kept apart here.

Conditions: cited from earlier work; for dose proportionality of Cmax or AUC: healthy subjects

Compound	autoinduction phenomenon	dose proportionality of Cmax or AUC (single oral administration 2.5–400 mg)	dose proportionality of Cmax or AUC (single oral administration 100–1,600 mg)
Cc1ccnc2c1NC(=O)c1cccnc1N2C1CC1 [nevirapine]	autoinduction phenomenon has also been observed	increased less than dose-proportionally	–
O=C1Nc2ccc(Cl)cc2[C@@](C#CC2CC2)(C(F)(F)F)O1 [efavirenz]	autoinduction phenomenon has also been observed	–	increased less than dose-proportionally
